Measured values reported in patent EP0024779A1, “Drugs for use with intrauterine devices and intrauterine devices containing said drugs” (Shaw, Seth Thomas, Jr., priority 1979, dated 1981).

System: IUD associated uterine hemmorhage
Experiment: not given
Conditions: systemic (oral) intake; cited from earlier work

| SMILES | IUD associated uterine hemmorhage |
| --- | --- |
| NCCCCCC(=O)O [EACA, epsilon aminocaproic acid] | alleviated |
| NC[C@H]1CC[C@H](C(=O)O)CC1 [tranexamic acid] | alleviated |

System: fibrinolytic activity
Experiment: Fibrinolytic inhibition, potency relative to dibromopropamidine
Type: biochemical
Conditions: on a molar concentration basis
Source text: The numerical values are expressed as a reciprocal of the concentration of the drug producing the equivalent inhibition to the dibromopropamidine. Where no values for relative potency are listed such values have not been specifically determined.

| SMILES | anti-fibrinolytic effect greater than that of dibromopropamidine [times] |
| --- | --- |
| N=C(N)Nc1ccc(C(=O)Oc2ccc([N+](=O)[O-])cc2)cc1 [NPG3, p-nitrophenyl-p'-guanidinobenzoate] | ~100 |

Same assay, conditions: relative to dibromopropamidine; reciprocal of the concentration producing inhibition equivalent to dibromopropamidine

| SMILES | Relative Potency |
| --- | --- |
| N=C(N)c1ccc(OCCCCCOc2ccc(C(=N)N)cc2Br)c(Br)c1 [Dibromopentamidine] | 3.6 |
| N=C(N)c1ccc(OCCCOc2ccc(C(=N)N)cc2Br)c(Br)c1 [Dibromopropamidine] | 1.0 |
| N=C(N)c1ccc(OCCCCCCOc2ccc(C(=N)N)cc2Cl)c(Cl)c1 [Dichlorohexamidine] | 1.9 |
| N=C(N)c1ccc(OCCCCCCOc2ccc(C(=N)N)cc2I)c(I)c1 [Diiodohexamidine] | 7.5 |
| N=C(N)c1ccc(OCCCCCOc2ccc(C(=N)N)cc2I)c(I)c1 [Diiodopentamidine] | 6.8 |
| N=C(N)c1ccc(OCCCCCCCOc2ccc(C(=N)N)cc2)cc1 [Heptamidine] | 1.9 |
| N=C(N)c1ccc(OCCCCCCOc2ccc(C(=N)N)cc2)cc1 [Hexamidine] | 1.6 |
| N=C(N)c1ccc(OCCCCCCOc2ccc(C(=N)N)cc2I)cc1 [Monoiodohexamidine] | 4.4 |
| N=C(N)c1ccc(OCCCCCCCCOc2ccc(C(=N)N)cc2)cc1 [Octamidine] | 2.6 |
| N=C(N)c1ccc(OCCCCCOc2ccc(C(=N)N)cc2)cc1 [Pentamidine] | 2.4 |
| N=C(N)c1ccc(Oc2ccc(C(=N)N)cc2)cc1 [Phenamidine] | 0.2 |
| N=C(N)c1ccc(OCCCOc2ccc(C(=N)N)cc2)cc1 [Propamidine] | 1.2 |
| N=C(N)c1cccc(OCCCCCOc2cccc(C(=N)N)c2)c1 [m-Pentamidine] | 0.6 |

System: fibrinolytic activity
Experiment: not given
Conditions: over a prolonged period of time inside the uterus; cited from earlier work

| SMILES | inhibitor concentration required to be effective [mol/L] |
| --- | --- |
| NCCCCCC(=O)O [EACA, epsilon aminocaproic acid] | 0.001 |
| NC[C@H]1CC[C@H](C(=O)O)CC1 [tranexamic acid] | 0.0001 |
